Measured values reported in PubChem BioAssay AID1919016 (Molecular Pharmacology Branch, DTP, NCI, 2023).

Tested on: NCI-H196 complex spheroid growth, percent test/control
Assay: Anticancer human tumor NCI-H196 cell line growth inhibition [AhR];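 also: seven days of drug exposure starting three days after plating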;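 as to viability, T/C: 100% = DMSO vehicle control wells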
Conditions: for IC50: curve of first compound; for viability, T/C: stronger effect = lower value
Outline: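 Complex tumor spheroids co-cultured with HUVEC and human MSC stroma; AhR antagonists tested in combination with standard-of-care and investigational agents. Top concentration at or near clinical Cmax (else 10 microM), half-log dilutions; growth expressed as percent test/control.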

[1] = second compound 0.1 µM, first compound 0.000949 µM
[2] = second compound 0.1 µM, first compound 0.003 µM
[3] = second compound 0.1 µM, first compound 0.00949 µM
[4] = second compound 0.1 µM, first compound 0.03 µM
[5] = second compound 0.1 µM, first compound 0.0949 µM
[6] = second compound 0.1 µM, first compound 0.3 µM
[7] = second compound 0.316 µM, first compound 0.000949 µM
[8] = second compound 0.316 µM, first compound 0.003 µM
[9] = second compound 0.316 µM, first compound 0.00949 µM
[10] = second compound 0.316 µM, first compound 0.03 µM
[11] = second compound 0.316 µM, first compound 0.0949 µM
[12] = second compound 0.316 µM, first compound 0.3 µM
[13] = second compound 1 µM, first compound 0.000949 µM
[14] = second compound 1 µM, first compound 0.003 µM
[15] = second compound 1 µM, first compound 0.00949 µM
[16] = second compound 1 µM, first compound 0.03 µM
[17] = second compound 1 µM, first compound 0.0949 µM
[18] = second compound 1 µM, first compound 0.3 µM
[19] = second compound 3.16 µM, first compound 0.000949 µM
[20] = second compound 3.16 µM, first compound 0.003 µM
[21] = second compound 3.16 µM, first compound 0.00949 µM
[22] = second compound 3.16 µM, first compound 0.03 µM
[23] = second compound 3.16 µM, first compound 0.0949 µM
[24] = second compound 3.16 µM, first compound 0.3 µM
[25] = second compound 10 µM, first compound 0.000949 µM
[26] = second compound 10 µM, first compound 0.003 µM
[27] = second compound 10 µM, first compound 0.00949 µM
[28] = second compound 10 µM, first compound 0.03 µM
[29] = second compound 10 µM, first compound 0.0949 µM
[30] = second compound 10 µM, first compound 0.3 µM
[31] = second compound 0.1 µM, first compound 0.0316 µM
[32] = second compound 0.1 µM, first compound 0.1 µM
[33] = second compound 0.1 µM, first compound 0.316 µM
[34] = second compound 0.1 µM, first compound 1 µM
[35] = second compound 0.1 µM, first compound 3.16 µM
[36] = second compound 0.1 µM, first compound 10 µM
[37] = second compound 0.316 µM, first compound 0.0316 µM
[38] = second compound 0.316 µM, first compound 0.1 µM
[39] = second compound 0.316 µM, first compound 0.316 µM
[40] = second compound 0.316 µM, first compound 1 µM
[41] = second compound 0.316 µM, first compound 3.16 µM
[42] = second compound 0.316 µM, first compound 10 µM
[43] = second compound 1 µM, first compound 0.0316 µM
[44] = second compound 1 µM, first compound 0.1 µM
[45] = second compound 1 µM, first compound 0.316 µM
[46] = second compound 1 µM, first compound 1 µM
[47] = second compound 1 µM, first compound 3.16 µM
[48] = second compound 1 µM, first compound 10 µM
[49] = second compound 3.16 µM, first compound 0.0316 µM
[50] = second compound 3.16 µM, first compound 0.1 µM
[51] = second compound 3.16 µM, first compound 0.316 µM
[52] = second compound 3.16 µM, first compound 1 µM
[53] = second compound 3.16 µM, first compound 3.16 µM
[54] = second compound 3.16 µM, first compound 10 µM
[55] = second compound 10 µM, first compound 0.0316 µM
[56] = second compound 10 µM, first compound 0.1 µM
[57] = second compound 10 µM, first compound 0.316 µM
[58] = second compound 10 µM, first compound 1 µM
[59] = second compound 10 µM, first compound 3.16 µM
[60] = second compound 10 µM, first compound 10 µM

Structure (SMILES): CC(C)CC(NC(=O)C(Cc1ccccc1)NC(=O)c1cnccn1)B(O)O (stereo not given) + Cc1ccccc1N=Nc1ccc(NC(=O)c2ccnn2C)c(C)c1
- IC50 (second compound 0.1 µM): 14.4 nM
- IC50 (second compound 0.316 µM): 15.6 nM
- IC50 (second compound 1 µM): 15.8 nM
- IC50 (second compound 3.16 µM): 15.9 nM
- IC50 (second compound 10 µM): 16.8 nM
- viability, T/C [1]: 97.6%
- viability, T/C [2]: 101%
- viability, T/C [3]: 74.9%
- viability, T/C [4]: 6.41%
- viability, T/C [5]: 4.21%
- viability, T/C [6]: 5.04%
- viability, T/C [7]: 93.6%
- viability, T/C [8]: 96.4%
- viability, T/C [9]: 83.1%
- viability, T/C [10]: 6.9%
- viability, T/C [11]: 4.16%
- viability, T/C [12]: 3.98%
- viability, T/C [13]: 90.8%
- viability, T/C [14]: 101%
- viability, T/C [15]: 83%
- viability, T/C [16]: 8.93%
- viability, T/C [17]: 4.78%
- viability, T/C [18]: 6.96%
- viability, T/C [19]: 97.4%
- viability, T/C [20]: 95.8%
- viability, T/C [21]: 83.8%
- viability, T/C [22]: 8.44%
- viability, T/C [23]: 3.34%
- viability, T/C [24]: 3.4%
- viability, T/C [25]: 89.2%
- viability, T/C [26]: 90.5%
- viability, T/C [27]: 85.1%
- viability, T/C [28]: 14.6%
- viability, T/C [29]: 8.98%
- viability, T/C [30]: 5.84%

Structure (SMILES): CCc1c2c(nc3ccc(O)cc13)-c1cc3c(c(=O)n1C2)COC(=O)[C@]3(O)CC + Cc1ccccc1N=Nc1ccc(NC(=O)c2ccnn2C)c(C)c1
- IC50 (second compound 0.1 µM): > 300 nM
- IC50 (second compound 0.316 µM): > 300 nM
- IC50 (second compound 1 µM): > 300 nM
- IC50 (second compound 3.16 µM): > 300 nM
- IC50 (second compound 10 µM): > 300 nM
- viability, T/C [1]: 97%
- viability, T/C [2]: 101%
- viability, T/C [3]: 103%
- viability, T/C [4]: 95.3%
- viability, T/C [5]: 93.3%
- viability, T/C [6]: 81.2%
- viability, T/C [7]: 96.3%
- viability, T/C [8]: 103%
- viability, T/C [9]: 106%
- viability, T/C [10]: 89.7%
- viability, T/C [11]: 89.2%
- viability, T/C [12]: 85.2%
- viability, T/C [13]: 89.8%
- viability, T/C [14]: 106%
- viability, T/C [15]: 93.8%
- viability, T/C [16]: 100%
- viability, T/C [17]: 99.2%
- viability, T/C [18]: 70.7%
- viability, T/C [19]: 89.4%
- viability, T/C [20]: 91.3%
- viability, T/C [21]: 103%
- viability, T/C [22]: 88.9%
- viability, T/C [23]: 82.7%
- viability, T/C [24]: 74.3%
- viability, T/C [25]: 89%
- viability, T/C [26]: 108%
- viability, T/C [27]: 93.3%
- viability, T/C [28]: 94.9%
- viability, T/C [29]: 96%
- viability, T/C [30]: 76.1%

Structure (SMILES): Nc1ccccc1NC(=O)c1ccc(CNC(=O)OCc2cccnc2)cc1 + Cc1ccccc1N=Nc1ccc(NC(=O)c2ccnn2C)c(C)c1
- IC50 (second compound 0.1 µM): 787 nM
- IC50 (second compound 0.316 µM): 856 nM
- IC50 (second compound 1 µM): 992 nM
- IC50 (second compound 3.16 µM): 765 nM
- IC50 (second compound 10 µM): 1200 nM
- viability, T/C [31]: 88%
- viability, T/C [32]: 78.3%
- viability, T/C [33]: 71.9%
- viability, T/C [34]: 44.8%
- viability, T/C [35]: 15%
- viability, T/C [36]: 0.96%
- viability, T/C [37]: 85%
- viability, T/C [38]: 83.9%
- viability, T/C [39]: 73.3%
- viability, T/C [40]: 44.9%
- viability, T/C [41]: 18.5%
- viability, T/C [42]: 1%
- viability, T/C [43]: 85.8%
- viability, T/C [44]: 89.8%
- viability, T/C [45]: 74.9%
- viability, T/C [46]: 48.6%
- viability, T/C [47]: 20.7%
- viability, T/C [48]: 1.92%
- viability, T/C [49]: 91.9%
- viability, T/C [50]: 80.8%
- viability, T/C [51]: 70.5%
- viability, T/C [52]: 44%
- viability, T/C [53]: 18.5%
- viability, T/C [54]: 1.99%
- viability, T/C [55]: 88.8%
- viability, T/C [56]: 94.7%
- viability, T/C [57]: 72.7%
- viability, T/C [58]: 55.2%
- viability, T/C [59]: 26.5%
- viability, T/C [60]: 3.32%

Structure (SMILES): O=C(c1cc(Cc2n[nH]c(=O)c3ccccc23)ccc1F)N1CCN(C(=O)C2CC2)CC1 + Cc1ccccc1N=Nc1ccc(NC(=O)c2ccnn2C)c(C)c1
- IC50 (second compound 0.1 µM): > 10000 nM
- IC50 (second compound 0.316 µM): > 10000 nM
- IC50 (second compound 1 µM): > 10000 nM
- IC50 (second compound 3.16 µM): > 10000 nM
- IC50 (second compound 10 µM): > 10000 nM
- viability, T/C [31]: 109%
- viability, T/C [32]: 101%
- viability, T/C [33]: 107%
- viability, T/C [34]: 94.1%
- viability, T/C [35]: 91.4%
- viability, T/C [36]: 102%
- viability, T/C [37]: 99.5%
- viability, T/C [38]: 103%
- viability, T/C [39]: 102%
- viability, T/C [40]: 93.1%
- viability, T/C [41]: 108%
- viability, T/C [42]: 102%
- viability, T/C [43]: 99.4%
- viability, T/C [44]: 107%
- viability, T/C [45]: 98.3%
- viability, T/C [46]: 99.1%
- viability, T/C [47]: 100%
- viability, T/C [48]: 93.6%
- viability, T/C [49]: 90.8%
- viability, T/C [50]: 105%
- viability, T/C [51]: 95.9%
- viability, T/C [52]: 108%
- viability, T/C [53]: 96.9%
- viability, T/C [54]: 101%
- viability, T/C [55]: 87.2%
- viability, T/C [56]: 90.1%
- viability, T/C [57]: 99.1%
- viability, T/C [58]: 98.8%
- viability, T/C [59]: 103%
- viability, T/C [60]: 83.4%
